Assays:
[1] = system: pancreatic cancer PDX tumors; experiment: Radiotherapy study in pancreatic cancer PDX-bearing mice (tumor growth); type: in vivo; details: 1.85 MBq or 3.7 MBq, vs saline or 3.7 MBq ^177Lu-FAPI-04
Description: (§1) ^68Ga-FAPI-04 PET imaging was performed to evaluate the tumor volume, and the mice were treated when their average tumor volume reached 35 mm^3. The PDX-bearing mice (6 groups, 7–9 mice per group) were treated by saline, 3.7 MBq of ^177Lu-FAPI-04, 1.85 MBq of ^177Lu-TEFAPI-06, 3.7 MBq of ^177Lu-TEFAPI-06, 1.85 MBq of ^177Lu-TEFAPI-07, or […] of ^177Lu-TEFAPI-07. Tumor volume and body weight were monitored every 2 or 3 d, and the animals were euthanized when the tumor volume exceeded 1,000 mm^3. Histopathologic staining was performed with an antihuman FAP monoclonal antibody (ab207178; Abcam), and hematoxylin and eosin staining was performed as previously described ([29]).

[2] = Ex vivo biodistribution study in PDX-bearing mice
Description: PDX-bearing mice were injected with 925.0 kBq of ^177Lu-TEFAPI-06 or ^177Lu-TEFAPI-07 for an ex vivo biodistribution study. The mice were killed at 24 h and 96 h after injection, the counts of the different organs were measured with a γ-counter, and the data were normalized to percentage injected dose (%ID)/g using 1% of total counts.

[3] = Stability in vitro in saline and human serum (radio-HPLC); type: in vitro ADME; details: 7 d
Description: The radiolabeling of ^68Ga, ^86Y, and ^177Lu was performed by incubation with 50 nmol of precursor at pH 4.5–5.0 at 90°C for 10 min. The product was purified by C18 column extraction, and the radiochemical purity was determined by high-performance liquid chromatography equipped with a radioactivity detector. The stability of ^177Lu-TEFAPI-06 and ^177Lu-TEFAPI-07 in saline and human serum was monitored from 2 to 168 h using radio–high-performance liquid chromatography ([13]). More details about the radiochemistry, the quality control testing, and the stability assay can be found in the supplemental materials (section 3).

[4] = Radiotherapy study: body weight and hematoxylin and eosin staining of main organs; type: in vivo; details: pancreatic cancer PDX-bearing mice after treatment
Description: as §1

[5] = system: pancreatic cancer PDX tumors; experiment: SPECT imaging in pancreatic cancer PDX-bearing mice; type: in vivo; details: for tumor uptake at 6 d after injection (SPECT imaging and biodistribution): 6 d after the injection; for tumor-to-nontargeted-tissue signal ratios on SPECT: PDX tumor models, until 144 h after injection
Description: SPECT scans were performed on a Mediso nanoSPECT/CT imaging system. ^177Lu-TEFAPI-06 or ^177Lu-TEFAPI-07 SPECT imaging was performed on pancreatic cancer PDX–bearing mice at the indicated time points after intravenous injection of 37 MBq of ^177Lu-TEFAPI-06 or ^177Lu-TEFAPI-07, respectively.

Blood uptake ([2]; 24 h after injection) | Bone uptake ([2]; 24 h after injection) | Brain uptake ([2]; 24 h after injection) | Fat uptake ([2]; 24 h after injection) | Heart uptake ([2]; 24 h after injection) | Kidney uptake ([2]; 24 h after injection) | Large intestine uptake ([2]; 24 h after injection) | Liver uptake ([2]; 24 h after injection) | Lung uptake ([2]; 24 h after injection) | Muscle uptake ([2]; 24 h after injection) | Pancreas uptake ([2]; 24 h after injection) | Small intestine uptake ([2]; 24 h after injection) | Spleen uptake ([2]; 24 h after injection) | Stomach uptake ([2]; 24 h after injection) | Tumor uptake ([2]; 24 h after injection) | tumor-to-liver ratio ([2]; 24 h after injection) | Blood uptake ([2]; 96 h after injection) | Bone uptake ([2]; 96 h after injection) | Fat uptake ([2]; 96 h after injection) | SMILES | tumor growth after treatment [1] | other results
12.32 %ID/g | 1.32 %ID/g | 0.37 %ID/g | 1.86 %ID/g | 3.70 %ID/g | 3.20 %ID/g | 1.66 %ID/g | 2.98 %ID/g | 4.33 %ID/g | 1.09 %ID/g | 2.01 %ID/g | 2.55 %ID/g | 3.00 %ID/g | 1.75 %ID/g | 8.68 %ID/g | 2.91 | 2.25 %ID/g | 0.35 %ID/g | 1.55 %ID/g | N#C[C@@H]1CC(F)(F)CN1C(=O)CNC(=O)c1ccnc2ccc(OCCCN3CCN(C(=O)[C@H](CCCCNC(=O)CN4CCN(CC(=O)[O-])CCN(CC(=O)[O-])CCN(CC(=O)[O-])CC4)NC(=O)CCCC(=O)N[C@@H](CCCCNC(=O)CCCc4ccc(I)cc4)C(=O)O)CC3)cc12.[177Lu+3] [^177Lu-TEFAPI-06] | remarkable suppression of tumor growth | Brain uptake ([2]; 96 h after injection): 0.09 %ID/g; Heart uptake ([2]; 96 h after injection): 1.51 %ID/g; Kidney uptake ([2]; 96 h after injection): 2.66 %ID/g; Large intestine uptake ([2]; 96 h after injection): 0.53 %ID/g; Liver uptake ([2]; 96 h after injection): 1.74 %ID/g; Lung uptake ([2]; 96 h after injection): 1.95 %ID/g; Muscle uptake ([2]; 96 h after injection): 0.45 %ID/g; Pancreas uptake ([2]; 96 h after injection): 0.75 %ID/g; Small intestine uptake ([2]; 96 h after injection): 0.61 %ID/g; Spleen uptake ([2]; 96 h after injection): 3.66 %ID/g; Stomach uptake ([2]; 96 h after injection): 0.54 %ID/g; Tumor uptake ([2]; 96 h after injection): 7.33 %ID/g; tumor-to-liver ratio ([2]; 96 h after injection): 4.21; radiochemistry purity after incubation in human serum [3]: over 90%; radiochemistry purity after incubation in saline [3]: over 90%; side effects, hematoxylin and eosin staining of the main organs [4]: almost negligible; tumor uptake at 6 d after injection (SPECT imaging and biodistribution) [5]: still notable; tumor-to-nontargeted-tissue signal ratios on SPECT [5]: high
5.64 %ID/g | 1.71 %ID/g | 0.23 %ID/g | 1.82 %ID/g | 2.53 %ID/g | 8.67 %ID/g | 1.15 %ID/g | 3.21 %ID/g | 2.58 %ID/g | 1.00 %ID/g | 2.16 %ID/g | 1.19 %ID/g | 2.69 %ID/g | 1.20 %ID/g | 7.87 %ID/g | 2.45 | 0.51 %ID/g | 0.18 %ID/g | 0.48 %ID/g | Cc1cc(-c2ccc(NC(=O)CCCC(=O)N[C@@H](CCCCNC(=O)CN3CCN(CC(=O)[O-])CCN(CC(=O)[O-])CCN(CC(=O)[O-])CC3)C(=O)N3CCN(CCCOc4ccc5nccc(C(=O)NCC(=O)N6CC(F)(F)C[C@H]6C#N)c5c4)CC3)c(C)c2)ccc1N=Nc1ccc2c(S(=O)(=O)O)cc(S(=O)(=O)O)c(N)c2c1O.[177Lu+3] [^177Lu-TEFAPI-07] | remarkable suppression of tumor growth | Heart uptake ([2]; 96 h after injection): 0.62 %ID/g; Kidney uptake ([2]; 96 h after injection): 10.16 %ID/g; Large intestine uptake ([2]; 96 h after injection): 0.10 %ID/g; Liver uptake ([2]; 96 h after injection): 2.31 %ID/g; Lung uptake ([2]; 96 h after injection): 0.73 %ID/g; Muscle uptake ([2]; 96 h after injection): 0.28 %ID/g; Pancreas uptake ([2]; 96 h after injection): 0.53 %ID/g; Small intestine uptake ([2]; 96 h after injection): 0.16 %ID/g; Spleen uptake ([2]; 96 h after injection): 1.88 %ID/g; Stomach uptake ([2]; 96 h after injection): 0.29 %ID/g; Tumor uptake ([2]; 96 h after injection): 7.57 %ID/g; tumor-to-liver ratio ([2]; 96 h after injection): 3.28; radiochemistry purity after incubation in human serum [3]: over 90%; radiochemistry purity after incubation in saline [3]: over 90%; side effects, hematoxylin and eosin staining of the main organs [4]: almost negligible; tumor uptake at 6 d after injection (SPECT imaging and biodistribution) [5]: still notable; tumor-to-nontargeted-tissue signal ratios on SPECT [5]: high
